Reference: patent US20150064763A1, “Method for Producing Hydrocarbons and Oxygen-containing Compounds from Biomass” (SWEDISH BIOFUELS AB, priority 2003, published 2015)

Target: formation of C3-C5 alcohols
Assay: Inhibition of C3-C5 alcohols formation in alcohol fermentation by yeast
Type: cell-based
Settings: for inhibition constant: formation of C3-C5 alcohols in alcohol fermentation; for effect on formation of C3-C5 alcohols: present in the substrate in addition to valine, leucine and isoleucine
Experimental: Formation of C3-C5 alcohols is a result of active functioning of the process of deamination of amino acids in the yeast cells with formation of free ammonia. […] The yield of C3-C5 alcohols reached 3.1% of ethanol when pure valine, isoleucine, and leucine were the sole source of nitrogen nutrition of the yeast in the inventive fermentation process. Moreover, the maximum formation of C3-C5 alcohols in the inventive process of alcohol fermentation occurred at pH=6.0 of the medium and at 38° C. (standard conditions of alcohol fermentation pH 4.5-5.5; temperature 28-34° C.).

[1] = system with leucine as amino acid

| inhibition constant (system with valine as amino acid) | SMILES | inhibition constant [1] | effect on formation of C3-C5 alcohols |
| --- | --- | --- | --- |
|  | N.N.O=S(=O)(O)O [ammonium sulphate] | 750 mg/L |  |
| 650 mg/L | NC(=O)C[C@H](N)C(=O)O [asparagine] | 730 mg/L | inhibits formation of C3-C5 alcohols |
|  | N [ammonium ions] |  | inhibits formation of C3-C5 alcohols |
